Drawing on US11739098B2 (BRISTOL-MYERS SQUIBB COMPANY, priority 2017, dated 2023), this text covers IC50 for twelve molecules.

Where only a bound is given, the exact number is not on record here.

What all share (type): cell-based
One experiment deals with T1, human TLR9 (Homo sapiens, UniProt Q9NR96).
T1 construct: host or cells: HEK-Blue cells (HEK293-derived reporter line)
T1 sequence (Q9NR96 26-1032): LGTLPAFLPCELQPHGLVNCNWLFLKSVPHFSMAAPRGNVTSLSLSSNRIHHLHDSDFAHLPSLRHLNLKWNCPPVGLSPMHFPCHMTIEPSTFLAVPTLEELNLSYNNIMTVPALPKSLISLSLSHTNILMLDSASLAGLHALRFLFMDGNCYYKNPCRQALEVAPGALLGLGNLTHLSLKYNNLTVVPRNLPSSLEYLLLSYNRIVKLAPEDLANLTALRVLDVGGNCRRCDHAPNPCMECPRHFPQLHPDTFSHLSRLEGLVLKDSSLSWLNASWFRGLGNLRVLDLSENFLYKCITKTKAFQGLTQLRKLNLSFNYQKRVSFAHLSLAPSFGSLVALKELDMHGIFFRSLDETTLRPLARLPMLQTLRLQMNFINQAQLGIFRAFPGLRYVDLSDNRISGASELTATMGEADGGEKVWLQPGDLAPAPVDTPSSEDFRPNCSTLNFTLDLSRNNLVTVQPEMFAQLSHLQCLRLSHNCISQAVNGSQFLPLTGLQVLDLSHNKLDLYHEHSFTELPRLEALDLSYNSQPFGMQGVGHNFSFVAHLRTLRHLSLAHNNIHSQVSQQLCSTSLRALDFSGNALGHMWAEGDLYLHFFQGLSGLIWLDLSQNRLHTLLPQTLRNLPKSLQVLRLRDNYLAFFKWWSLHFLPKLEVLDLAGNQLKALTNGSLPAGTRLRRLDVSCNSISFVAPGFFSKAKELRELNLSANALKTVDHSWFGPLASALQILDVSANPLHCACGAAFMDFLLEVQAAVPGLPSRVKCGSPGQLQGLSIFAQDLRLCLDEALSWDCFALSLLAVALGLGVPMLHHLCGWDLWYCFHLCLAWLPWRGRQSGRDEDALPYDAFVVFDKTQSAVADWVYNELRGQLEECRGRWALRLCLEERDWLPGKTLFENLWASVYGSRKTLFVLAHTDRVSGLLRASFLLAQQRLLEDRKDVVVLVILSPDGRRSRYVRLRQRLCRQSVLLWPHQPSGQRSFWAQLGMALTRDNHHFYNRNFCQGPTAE
In words: TLR9 inhibition reporter assay (HEK-Blue cells, SEAP reporter, ODN2006 stimulation). The settings on record: HEK-Blue cells overexpressing human TLR9, SEAP reporter, ODN2006 5 nM. The procedure, abridged:
(§1)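 HEK-Blue cells overexpressing human TLR7, TLR8 or TLR9 (NF-κB/AP-1-driven SEAP) pre-treated 30 min at room temperature with compound (0.05 nM–50 μM), then stimulated with gardiquimod 7.5 μM (TLR7), R848 15.9 μM (TLR8) or ODN2006 5 nM (TLR9). SEAP read colorimetrically after 22 h at 37 °C; % inhibition calculated.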
A general note: In a reporter assay the amount or activity of a reporter protein is the signal.

In the next experiment the target is T2, human TLR8 (Homo sapiens, UniProt Q9NR97).
T2 construct: host or cells: HEK-Blue cells (HEK293-derived reporter line)
T2 sequence (Q9NR97 27-1041): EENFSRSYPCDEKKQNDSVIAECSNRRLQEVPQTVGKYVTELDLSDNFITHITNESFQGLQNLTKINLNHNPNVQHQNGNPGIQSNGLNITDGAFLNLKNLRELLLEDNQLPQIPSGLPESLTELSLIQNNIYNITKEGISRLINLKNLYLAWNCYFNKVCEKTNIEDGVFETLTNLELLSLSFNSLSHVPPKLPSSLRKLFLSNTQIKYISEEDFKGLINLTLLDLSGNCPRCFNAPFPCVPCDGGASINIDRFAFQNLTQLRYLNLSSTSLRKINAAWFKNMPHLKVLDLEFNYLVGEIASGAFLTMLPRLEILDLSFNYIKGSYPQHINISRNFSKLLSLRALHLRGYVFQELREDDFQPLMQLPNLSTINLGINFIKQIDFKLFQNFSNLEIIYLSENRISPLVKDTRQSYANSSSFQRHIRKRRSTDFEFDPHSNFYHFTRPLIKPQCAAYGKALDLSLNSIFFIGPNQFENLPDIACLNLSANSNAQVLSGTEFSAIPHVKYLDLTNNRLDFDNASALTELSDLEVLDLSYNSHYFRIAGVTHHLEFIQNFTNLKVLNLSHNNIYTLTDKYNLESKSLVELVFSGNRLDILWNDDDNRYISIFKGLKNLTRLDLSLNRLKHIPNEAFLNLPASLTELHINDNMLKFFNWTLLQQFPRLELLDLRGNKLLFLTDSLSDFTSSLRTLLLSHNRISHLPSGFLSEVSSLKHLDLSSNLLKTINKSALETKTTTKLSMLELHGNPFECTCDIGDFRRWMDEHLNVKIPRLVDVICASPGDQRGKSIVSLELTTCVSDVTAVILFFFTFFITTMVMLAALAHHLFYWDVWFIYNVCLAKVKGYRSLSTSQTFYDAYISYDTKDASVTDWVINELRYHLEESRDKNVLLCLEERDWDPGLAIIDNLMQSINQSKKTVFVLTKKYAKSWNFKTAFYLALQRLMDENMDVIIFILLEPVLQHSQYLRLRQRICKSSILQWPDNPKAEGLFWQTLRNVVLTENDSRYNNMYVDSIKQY
The experiment is described as follows: TLR8 inhibition reporter assay (HEK-Blue cells, SEAP reporter, R848 stimulation). As to conditions: HEK-Blue cells overexpressing human TLR8, SEAP reporter, R848 15.9 μM. The procedure, abridged: as §1

In a further experiment the target is T3, human TLR7 (Homo sapiens, UniProt Q9NYK1).
T3 construct: host or cells: HEK-Blue cells (HEK293-derived reporter line)
T3 sequence (Q9NYK1 27-1049): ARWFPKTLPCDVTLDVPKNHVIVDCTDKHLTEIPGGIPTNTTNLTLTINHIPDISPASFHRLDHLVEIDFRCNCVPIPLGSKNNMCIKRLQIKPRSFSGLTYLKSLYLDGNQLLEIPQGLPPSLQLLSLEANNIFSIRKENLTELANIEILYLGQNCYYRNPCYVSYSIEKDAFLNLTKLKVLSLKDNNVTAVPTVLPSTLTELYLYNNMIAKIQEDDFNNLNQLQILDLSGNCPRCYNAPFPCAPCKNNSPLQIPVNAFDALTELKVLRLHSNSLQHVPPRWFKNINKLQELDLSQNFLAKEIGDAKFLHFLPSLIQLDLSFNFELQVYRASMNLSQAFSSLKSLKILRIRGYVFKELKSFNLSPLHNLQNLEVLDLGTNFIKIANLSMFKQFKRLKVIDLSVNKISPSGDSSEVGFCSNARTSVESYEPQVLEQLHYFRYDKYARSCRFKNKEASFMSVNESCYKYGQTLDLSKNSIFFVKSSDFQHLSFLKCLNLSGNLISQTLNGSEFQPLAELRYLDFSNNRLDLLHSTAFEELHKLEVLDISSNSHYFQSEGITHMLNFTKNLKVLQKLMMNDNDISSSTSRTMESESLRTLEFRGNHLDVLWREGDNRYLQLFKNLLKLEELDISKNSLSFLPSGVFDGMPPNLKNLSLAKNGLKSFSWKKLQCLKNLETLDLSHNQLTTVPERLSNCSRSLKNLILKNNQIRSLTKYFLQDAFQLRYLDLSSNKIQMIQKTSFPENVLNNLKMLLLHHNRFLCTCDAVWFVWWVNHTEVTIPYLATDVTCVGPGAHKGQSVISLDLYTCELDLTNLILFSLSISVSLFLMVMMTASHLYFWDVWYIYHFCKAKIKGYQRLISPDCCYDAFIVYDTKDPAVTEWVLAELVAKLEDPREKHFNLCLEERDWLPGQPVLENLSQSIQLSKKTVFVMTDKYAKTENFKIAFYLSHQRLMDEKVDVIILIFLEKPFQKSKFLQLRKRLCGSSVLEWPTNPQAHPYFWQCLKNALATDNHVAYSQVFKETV
In words: TLR7 inhibition reporter assay (HEK-Blue cells, SEAP reporter, gardiquimod stimulation). The settings on record: HEK-Blue cells overexpressing human TLR7, SEAP reporter, gardiquimod 7.5 μM. The method in brief: as §1

Take `CC(C)c1c(-c2ccnc3[nH]ncc23)[nH]c2ccc(C3CCN(C4C[C@H]5CC[C@@H](C4)N5C)CC3)cc12` (stereo partly drawn) [Example 829, 4-(3-isopropyl-5-(1-((1R,5S)-8-methyl-8-azabicyclo[3.2.1]octan-3-yl)piperidin-4-yl)-1H-indol-2-yl)-1H-pyrazolo[3,4-b]pyridine]: the IC50 (as a rule, the concentration that inhibits the measured activity by half) on human TLR9 was 100 to 1000 nM; at human TLR8 it was less than 100 nM; at human TLR7, less than 100 nM.

On to `CNC(=O)CN1CCC(c2ccc3[nH]c(-c4cc(F)c5nccn5c4)c(C(C)C)c3c2)CC1` [Example 410, 2-(4-(2-(8-fluoroimidazo[1,2-a]pyridin-6-yl)-3-isopropyl-1H-indol-5-yl)piperidin-1-yl)-N-methylacetamide], for which the concentration for half-maximal inhibition (IC50) at human TLR9 was 1000 to 50000 nM; against human TLR8, 100 to 1000 nM; at human TLR7, less than 100 nM.

For `CNC(=O)CN1CCC(c2ccc3[nH]c(-c4cnc5c(cnn5C)c4)c(C(C)C)c3c2)CC1` [Example 366, 2-(4-(3-isopropyl-2-(1-methyl-1H-pyrazolo[3,4-b]pyridin-5-yl)-1H-indol-5-yl)piperidin-1-yl)-N-methylacetamide], the half-maximal inhibitory concentration (IC50) against human TLR9 is 1000 to 50000 nM; at human TLR8, less than 100 nM; against human TLR7, less than 100 nM.

`CC(C)c1c(-c2cc(C(F)(F)F)c3nccn3c2)[nH]c2ccc(C3CCNCC3)cc12` [Example 136, 6-(3-isopropyl-5-(piperidin-4-yl)-1H-indol-2-yl)-8-(trifluoromethyl)imidazo[1,2-a]pyridine]: the IC50 on human TLR9 was 100 to 1000 nM; against human TLR8, less than 100 nM; against human TLR7, less than 100 nM.

With `CC(C)c1c(-c2cn(C)c3ncccc23)[nH]c2ccc(C3CCN(C(=O)CN(C)C)CC3)cc12` [Example 463, 2-(dimethylamino)-1-(4-(3-isopropyl-2-(1-methyl-1H-pyrrolo[2,3-b]pyridin-3-yl)-1H-indol-5-yl)piperidin-1-yl)ethan-1-one], the half-maximal inhibitory concentration (IC50) at human TLR9 is 1000 to 50000 nM; at human TLR8 it was less than 100 nM; at human TLR7, less than 100 nM.

For `CC(C)c1c(-c2ccn3nncc3c2)[nH]c2ccc(C3CCN(C4CCOCC4)CC3)cc12` [Example 696, 5-(3-isopropyl-5-(1-(tetrahydro-2H-pyran-4-yl)piperidin-4-yl)-1H-indol-2-yl)-[1,2,3]triazolo[1,5-a]pyridine], the figures for the half-inhibitory concentration (IC50) on human TLR9, at human TLR8 and on human TLR7 were 1000 to 50000 nM, 100 to 1000 nM and less than 100 nM, respectively.

Take `Cc1cc(-c2[nH]c3ccc(C4CCN(C(=O)CN5CCCCC5)CC4)cc3c2C(C)C)cn2nnnc12` [Example 472, 1-(4-(3-isopropyl-2-(8-methyltetrazolo[1,5-a]pyridin-6-yl)-1H-indol-5-yl)piperidin-1-yl)-2-(piperidin-1-yl)ethan-1-one]: the IC50 against human TLR9 was 1000 to 50000 nM; at human TLR8, less than 100 nM; against human TLR7 it was less than 100 nM.

As to `COc1cc(-c2[nH]c3ccc(C4CCN(CCNS(C)(=O)=O)CC4)cc3c2C(C)C)nn2ncnc12` [Example 652, N-(2-(4-(3-isopropyl-2-(8-methoxy-[1,2,4]triazolo[1,5-b]pyridazin-6-yl)-1H-indol-5-yl)piperidin-1-yl)ethyl)methanesulfonamide], the IC50 against human TLR9 is 1000 to 50000 nM; at human TLR8 it was less than 100 nM; against human TLR7 it was less than 100 nM.

In the case of `CCc1c(-c2cnc3cncc(OC)n23)[nH]c2ccc(C3CCNCC3)cc12` [Example 25, 3-(3-ethyl-5-(piperidin-4-yl)-1H-indol-2-yl)-5-methoxyimidazo[1,2-a]pyrazine], the values for the half-maximal inhibitory concentration (IC50) at human TLR9, at human TLR8 and against human TLR7 were 100 to 1000 nM, 1000 to 50000 nM and 1000 to 50000 nM, respectively.

As for `CNC(=O)CN1CCC(c2ccc3[nH]c(-c4nn5ncnc5c(OC)c4C)c(C(C)C)c3c2)CC1` [Example 281, 2-(4-(3-isopropyl-2-(8-methoxy-7-methyl-[1,2,4]triazolo[1,5-b]pyridazin-6-yl)-1H-indol-5-yl)piperidin-1-yl)-N-methylacetamide], the IC50 against human TLR9 is 1000 to 50000 nM; against human TLR8, less than 100 nM; at human TLR7, less than 100 nM.

With `CCc1c(-c2ccn3ncnc3c2)[nH]c2ccc(C3CCNCC3)cc12` [Example 198, 7-(3-ethyl-5-(piperidin-4-yl)-1H-indol-2-yl)-[1,2,4]triazolo[1,5-a]pyridine], the IC50 against human TLR9 is 1000 to 50000 nM; against human TLR8, 100 to 1000 nM; on human TLR7, less than 100 nM.

Regarding `COc1cc(-c2[nH]c3ccc(C4CCN(C5COC5)CC4)cc3c2C(C)C)cn2ccnc12` [Example 722, 6-(3-isopropyl-5-(1-(oxetan-3-yl)piperidin-4-yl)-1H-indol-2-yl)-8-methoxyimidazo[1,2-a]pyridine], the IC50 against human TLR9 is 1000 to 50000 nM; at human TLR8 it was less than 100 nM; against human TLR7, less than 100 nM.
